Experimental data published in PMC12355554, “Development of novel mitochondrial pyruvate carrier inhibitors for breast cancer treatment” (The Journal of Biological Chemistry, 2025).
“Also recorded” adds a separate entry of the source.

Assays:
[1] = tested on: glutamate-driven respiration in 4T1 cells; test: Seahorse glutamate-driven respiration in permeabilized 4T1 cells; assay type: cell-based, murine; settings: Glu/Mal, candidate compounds 1 μM
Excerpt: Although our initial experiments and previous literature illustrate the ability of the candidate compounds to inhibit Pyr-driven respiration, we sought to investigate the ability of candidate compounds to inhibit respiration fueled by other metabolic substrates, glutamate and succinate (Fig. 2). Glutamate, similar to Pyr oxidation, results in NADH equivalents that fuel complex I-mediated respiration, and succinate metabolism offers FADH2 for electrons in complex II-driven respiratory processes. […] To further validate the mode of action of the candidate compounds, a series of similar Seahorse experiments were employed (Fig. 2, A–C). In these experiments, 4T1 cells were first permeabilized and were then offered metabolic substrates Pyr (Pyr/Mal; Fig. 2A), glutamate (Glu/Mal, Fig. 2B), or succinate (Fig. 2C), and the resulting OCR was observed. As described previously, Mal and DCA were included in the substrate milieu of glutamate respiration experiments. […] To validate that inhibition of Pyr respiration is due to mitochondrial Pyr uptake and not other Pyr-processing enzymes (i.e., Pyr dehydrogenase), a parallel experiment using methyl pyruvate (MePyr) was employed (Fig. 2, E and F). MePyr is permeable to the mitochondrial membranes, where in the matrix, mitochondrial esterase hydrolysis activity provides Pyr.
Permeabilized cell assays were performed using rPFO as described previously. 4T1 cells were seeded (20,000 cells/well) onto Seahorse XFe96 well plates and incubated overnight in growth media at 37 °C and 5% CO2 for adherence. On the day of the assay, growth media were aspirated and replaced with MAS buffer (70 mM sucrose, 220 mM mannitol, 10 mM potassium phosphate monobasic, 5 mM magnesium chloride, 2 mM Hepes, and 1 mM EGTA) after 3X rinse of growth media to remove serum and endogenous metabolic substrates, and incubated at 37 °C in a non-CO2 incubator. Respective inhibitor and substrate milieu's were prepared in MAS buffer for port injections A–D at 8X, 9X, 10X, and 11X the target cell concentrations to account for intrinsic dilution factor of in situ injections of each port. […] Final substrate concentrations for specific tests were as follows: (5 mM Pyr , 0.5 mM Mal, 2 mM DCA; 10 mM glutamate, 0.5 mM Mal, 2 mM DCA; 10 mM succinate, 2 μM rotenone; 20 mM methyl Pyr, 5 mM Pyr, 0.5 mM Mal, and 2 mM DCA). ATP rate assays and mitochondrial stress tests were performed according to the manufacturer's (Agilent) instructions.

[2] = tested on: MPC or MCT expression levels; test: Western blotting of MPC and MCT expression; assay type: cell-based; settings: Western blot
Description: After denaturation at 95 °C for 10 min in radioimmunoprecipitation buffer, protein concentration was determined and equilibrated using the bicinchoninic acid assay (ThermoScientific), and 20 μg of protein was separated by electrophoresis in 4 to 12% polyacrylamide gels. Proteins were electrophoretically transferred to polyvinylidene fluoride membranes for 90 min at 100 V and stained with Ponceau to verify transfer quality and equal protein loading. […] Santa Cruz, catalog no.: sc-365501, 1:1000 dilution; MCT4, Santa Cruz, catalog no.: sc-376140, 1:1000 dilution; MPC1, Cell Signaling, 1:1000 dilution, catalog no.: 14462; MPC2, Cell Signaling, 1:1000 dilution, catalog no.: 46141; […] TBST, 0.5% nonfat milk protein). Membranes were rinsed three times with TBST and incubated with the respective secondary goat antimouse IgG (1:10,000 dilution) or goat anti-rabbit IgG (1:10,000 dilution) horseradish peroxidase–conjugated antibodies (Cell Signaling). Membranes were again washed three times with TBST and exposed to SuperSignal 60 West luminol enhancer and stable peroxide solution (ThermoScientific) for 2 min. Chemiluminescent images were obtained using a LicorFC imager. Images shown are representative of two separate experiments obtained from independent biological samples.

[3] = physchem; settings: water
Description: Starting with the carboxylic acid 24, various salt forms were generated to increase the water solubility.

## CN(Cc1ccc(C(F)(F)F)cc1)c1ccc2cc(C(=O)O)c(=O)oc2c1.NC(CO)(CO)CO [C5, 1,3-dihydroxy-2-(hydroxymethyl)propan-2-aminium 7-(methyl(4-(trifluoromethyl)benzyl)amino)-2-oxo-2H-chromene-3-carboxylate]
[1]
  effect on glutamate-driven respiration: does not alter; also recorded: did not alter
[2]
  effect on MPC or MCT expression levels: does not alter
[3]
  solubility: 10000 µg/mL
